The values below come from patent US10392389B2, “Heterocyclic compounds for the inhibition of PASK” (BioEnergenix, LLC, priority 2012, dated 2019).

The target of one assay is T1, PASK (UniProt #Q96RG2; human recombinant N-terminal GST tagged construct, residues 879-1323) (Homo sapiens, UniProt Q96RG2).
T1 construct: N-terminal GST tagged construct, residues 879-1323; GST (N); host or cells: insect cells
The experiment in a line: PASK ATP Radiochemical Assay. Type of assay: biochemical. Conditions: 33P-ATP, Myelin Basic Protein substrate, read-out: IC50 Kinase Domain. The procedure: Biochemical Assay for hPASK Activity
PASK ATP Radiochemical Assay
(§1) Purified PASK (UniProt #Q96RG2; human recombinant N-terminal GST tagged construct, residues 879-1323) from insect cells (final concentration 5 nM) is added to freshly prepared Base Reaction Buffer containing 20 mM HEPES (pH 7.5), 10 mM MgCl2, 1 mM EGTA, 0.02% Brij35, 0.02 mg/ml BSA, 0.1 mM Na3VO4, 2 mM DTT, 1% DMSO and Myelin Basic Protein (20 μM final). Test compounds in DMSO are then added and the mixture, followed by delivery of ^33P-ATP (specific activity 0.01 μCi/μl final) to initiate the reaction. The kinase reaction is incubated for 120 min at room temperature. The entire reaction mixture is washed through onto a P81 Phosphocellulose paper and washed three times for 10 minutes in 75 mM phosphoric acid and once in methanol prior to drying and scintillation counting.

Assay [1] has as its target T2, CK2a2 (NP_001887; human full-length protein, GST tagged) (Homo sapiens, UniProt P19784).
T2 construct: human full-length protein, GST tagged; GST; host or cells: insect cells
Description: Biochemical Assay for CK2 Activity. To be noted: 33P-ATP radiochemical assay, CK2 sub [RRRDDDSDDD]. The procedure: Biochemical Assay for CK2 Activity
as §1, with “Purified CK2a2 (NP_001887;” for “Purified PASK (UniProt #Q96RG2;”, “human full-length protein,” for “human recombinant N-terminal”, “GST tagged)” for “GST tagged construct, residues 879-1323)”, “concentration 1.2” for “concentration 5”, “mM Hepes” for “mM HEPES”, “and CK2 sub [RRRDDDSDDD]” for “and Myelin Basic Protein”

Assay [2] addresses T3, PIM1 (NP_002639; human full-length protein, 6×His tagged) (Homo sapiens, UniProt P11309).
T3 construct: human full-length protein, 6×His tagged; 6xHis; host or cells: insect cells
The experiment in a line: Biochemical Assay for PIM1 Activity. To be noted: 33P-ATP radiochemical assay, S6K/Rsk2 peptide 2 substrate. The procedure: Biochemical Assay for PIM1 Activity
as §1, with “Purified PIM1 (NP_002639;” for “Purified PASK (UniProt #Q96RG2;”, “human full-length protein, 6×His tagged)” for “human recombinant N-terminal GST tagged construct, residues 879-1323)”, “concentration 1.0” for “concentration 5”, “mM Hepes” for “mM HEPES”, “and substrate S6K/Rsk2 peptide 2 [KKRNRTLTK]” for “and Myelin Basic Protein”, “activity 10” for “activity 0.01”

A further assay has as its target T4, PASK (Invitrogen) (Homo sapiens, UniProt Q96RG2).
T4 construct: IC50 Kinase Domain; purchased Invitrogen
Description: PAS Kinase FRET Assay. Conditions: PAS kinase TR-FRET assay (665 nm/615 nm); read-out: IC50 Kinase Domain. Format: biochemical. The essentials:
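PASK phosphorylates a ULight-peptide with ATP in 50 mM HEPES, 10 mM MgCl2, 1 mM EGTA, 0.01% Tween-20, 2 mM DTT for 2 h at 25° C in the dark. Compounds are added as 4× serial dilutions (top 12×10^−5 M at 4×). After stopping, an Eu anti-phospho-substrate antibody is added for 1 h and TR-FRET is read at 665/615 nm.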
A general note: Time-resolved FRET reads energy transfer from a long-lived donor to a nearby acceptor.

T3 sequence (P11309 whole entry): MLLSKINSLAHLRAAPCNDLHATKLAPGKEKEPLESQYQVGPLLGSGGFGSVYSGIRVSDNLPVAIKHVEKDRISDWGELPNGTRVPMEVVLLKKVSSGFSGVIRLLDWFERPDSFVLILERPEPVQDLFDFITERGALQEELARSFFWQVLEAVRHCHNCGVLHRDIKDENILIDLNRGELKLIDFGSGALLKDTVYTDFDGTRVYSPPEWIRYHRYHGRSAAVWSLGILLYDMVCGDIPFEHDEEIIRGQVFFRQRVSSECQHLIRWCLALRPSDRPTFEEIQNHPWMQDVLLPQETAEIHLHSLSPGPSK
T4 sequence (Q96RG2 999-1251 limits assumed): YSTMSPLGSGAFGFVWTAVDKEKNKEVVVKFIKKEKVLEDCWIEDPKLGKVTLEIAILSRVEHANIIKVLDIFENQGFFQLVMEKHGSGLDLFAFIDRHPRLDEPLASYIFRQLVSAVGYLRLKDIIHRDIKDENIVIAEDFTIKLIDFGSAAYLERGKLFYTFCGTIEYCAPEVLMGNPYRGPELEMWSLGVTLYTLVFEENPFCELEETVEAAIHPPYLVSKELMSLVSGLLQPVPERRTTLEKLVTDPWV
T1 sequence (Q96RG2 879-1323, stated change not applied): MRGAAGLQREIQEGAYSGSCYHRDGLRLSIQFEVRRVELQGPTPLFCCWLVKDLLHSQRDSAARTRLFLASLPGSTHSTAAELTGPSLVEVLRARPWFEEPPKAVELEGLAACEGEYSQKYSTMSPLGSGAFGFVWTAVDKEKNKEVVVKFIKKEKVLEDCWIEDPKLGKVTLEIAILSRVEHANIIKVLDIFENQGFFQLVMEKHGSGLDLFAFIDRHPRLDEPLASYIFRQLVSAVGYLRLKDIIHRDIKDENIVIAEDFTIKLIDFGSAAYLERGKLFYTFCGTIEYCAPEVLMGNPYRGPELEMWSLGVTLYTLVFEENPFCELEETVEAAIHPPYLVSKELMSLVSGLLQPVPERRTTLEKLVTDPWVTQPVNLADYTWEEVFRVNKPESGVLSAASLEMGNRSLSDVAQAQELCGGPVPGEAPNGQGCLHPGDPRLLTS
T2 sequence (P19784 whole entry): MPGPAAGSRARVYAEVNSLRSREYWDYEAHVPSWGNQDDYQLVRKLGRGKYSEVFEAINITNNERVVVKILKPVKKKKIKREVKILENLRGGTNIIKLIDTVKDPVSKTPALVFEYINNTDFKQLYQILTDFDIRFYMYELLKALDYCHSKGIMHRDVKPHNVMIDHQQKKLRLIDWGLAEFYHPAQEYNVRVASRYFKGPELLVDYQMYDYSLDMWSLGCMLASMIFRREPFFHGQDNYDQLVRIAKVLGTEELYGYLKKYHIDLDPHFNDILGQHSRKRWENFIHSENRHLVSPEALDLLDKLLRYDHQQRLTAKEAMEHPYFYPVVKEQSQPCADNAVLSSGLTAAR

The IC50 is the midpoint of a concentration-inhibition curve. For `Cc1cnc(-c2cnn3c(=O)cc(-c4ccc5c(c4)OCO5)[nH]c23)o1` [Example 3, 5-(2H-1,3-benzodioxol-5-yl)-3-(5-methyl-1,3-oxazol-2-yl)-4H,7H-pyrazolo[1,5-a]pyrimidin-7-one], the IC50 (on PASK; in assay [1]; in assay [2]; at PASK (Invitrogen)) was not above 10 µM in each case.

On to `Cc1coc(-c2cnn3c(=O)cc(-c4ccc5c(c4)OCO5)[nH]c23)n1` [Example 4, 5-(2H-1,3-benzodioxol-5-yl)-3-(4-methyl-1,3-oxazol-2-yl)-4H,7H-pyrazolo[1,5-a]pyrimidin-7-one], for which the half-maximal inhibitory concentration (IC50) (on PASK; in assay [1]; in assay [2]; at PASK (Invitrogen)) was not above 10 µM throughout.

On to `Cc1cnc(-c2cnn3c(=O)cc(-c4ccc5[nH]nnc5c4)[nH]c23)o1` [Example 5, 5-(1H-1,2,3-benzotriazol-5-yl)-3-(5-methyl-1,3-oxazol-2-yl)-4H,7H-pyrazolo[1,5-a]pyrimidin-7-one], for which the IC50 (on PASK; in assay [1]; in assay [2]; on PASK (Invitrogen)) was not above 10 µM throughout.

As to `CCn1ncc2cc(-c3cc(=O)n4ncc(-c5nc(C)co5)c4[nH]3)ccc21` [Example 13, 5-(1-Ethyl-1H-indazol-5-yl)-3-(4-methyl-1,3-oxazol-2-yl)-4H,7H-pyrazolo[1,5-a]pyrimidin-7-one], the half-inhibitory concentration (IC50) (on PASK; in assay [1]; in assay [2]; on PASK (Invitrogen)) was not above 10 µM in each case.

For `CCc1coc(-c2cnn3c(=O)cc(-c4ccc5[nH]nnc5c4)[nH]c23)n1` [Example 15, 5-(1H-1,2,3-benzotriazol-5-yl)-3-(4-ethyl-1,3-oxazol-2-yl)-4H,7H-pyrazolo[1,5-a]pyrimidin-7-one], the IC50 (on PASK; in assay [1]; in assay [2]; on PASK (Invitrogen)) was not above 10 µM in each case.

Take `CCc1coc(-c2cnn3c(=O)cc(-c4ccc5c(c4)OCO5)[nH]c23)n1` [Example 16, 5-(2H-1,3-benzodioxol-5-yl)-3-(4-ethyl-1,3-oxazol-2-yl)-4H,7H-pyrazolo[1,5-a]pyrimidin-7-one]: the IC50 (on PASK; in assay [1]; in assay [2]; at PASK (Invitrogen)) was not above 10 µM throughout.

In the case of `COc1cc(-c2cc(=O)n3ncc(-c4nc(C)co4)c3[nH]2)ccc1Cl` [Example 18, 5-(4-chloro-3-methoxyphenyl)-3-(4-methyl-1,3-oxazol-2-yl)-4H,7H-pyrazolo[1,5-a]pyrimidin-7-one], the half-maximal inhibitory concentration (IC50) (on PASK; in assay [1]; in assay [2]; on PASK (Invitrogen)) was not above 10 µM in each case.

`COc1cc(-c2cc(=O)n3ncc(-c4ncco4)c3[nH]2)ccc1Cl` [Example 19, 5-(4-chloro-3-methoxyphenyl)-3-(1,3-oxazol-2-yl)-4H,7H-pyrazolo[1,5-a]pyrimidin-7-one]: the IC50 (on PASK; in assay [1]; in assay [2]; at PASK (Invitrogen)) was not above 10 µM throughout.

Take `CCn1ncc2cc(-c3cc(=O)n4ncc(-c5ncco5)c4[nH]3)ccc21` [Example 20, 5-(1-Ethyl-1H-indazol-5-yl)-3-(1,3-oxazol-2-yl)-4H,7H-pyrazolo[1,5-a]pyrimidin-7-one]: the IC50 (on PASK; in assay [1]; in assay [2]; on PASK (Invitrogen)) was not above 10 µM throughout.

In the case of `CCOc1cc(-c2cc(=O)n3ncc(-c4nc(C)co4)c3[nH]2)ccc1Cl` [Example 21, 5-(4-chloro-3-ethoxyphenyl)-3-(4-methyl-1,3-oxazol-2-yl)-4H,7H-pyrazolo[1,5-a]pyrimidin-7-one], the IC50 on PASK was not above 10 µM; in assay [1], more than 10 µM; in assay [2], not above 10 µM; on PASK (Invitrogen), not above 10 µM.

With `O=c1cc(-c2ccc3[nH]ncc3c2)[nH]c2c(-c3ncco3)cnn12` [Example 23, 5-(1H-indazol-5-yl)-3-(oxazol-2-yl)pyrazolo[1,5-a]pyrimidin-7(4H)-one], the 50% inhibitory concentration (IC50) (at PASK; in assay [1]; in assay [2]; on PASK (Invitrogen)) was not above 10 µM in each case.

With `Cc1cnc(-c2cnn3c(=O)cc(-c4ccc5[nH]ncc5c4)[nH]c23)o1` [Example 24, 5-(1H-indazol-5-yl)-3-(5-methyloxazol-2-yl)pyrazolo[1,5-a]pyrimidin-7(4H)-one], the IC50 (at PASK; in assay [1]; in assay [2]; at PASK (Invitrogen)) was not above 10 µM in each case.

For `COc1cc(-c2cc(=O)n3ncc(-c4ccn(C)n4)c3[nH]2)ccc1Cl` [Example 54, 5-(4-chloro-3-methoxyphenyl)-3-(1-methyl-1H-pyrazol-3-yl)pyrazolo[1,5-a]pyrimidin-7(4H)-one], the IC50 (at PASK; in assay [1]; in assay [2]; at PASK (Invitrogen)) was not above 10 µM each time.

For the compound `CCn1ncc2cc(-c3cc(=O)n4ncc(-c5cc[nH]n5)c4[nH]3)ccc21` [Example 55, 5-(1-ethyl-1H-indazol-5-yl)-3-(1H-pyrazol-3-yl)pyrazolo[1,5-a]pyrimidin-7(4H)-one], the concentration for half-maximal inhibition (IC50) (on PASK; in assay [1]; in assay [2]; at PASK (Invitrogen)) was not above 10 µM each time.

On to `COc1cc(-c2cc(=O)n3ncc(-c4ncc(C)s4)c3[nH]2)ccc1Cl` [Example 56, 5-(4-chloro-3-methoxyphenyl)-3-(5-methylthiazol-2-yl)pyrazolo[1,5-a]pyrimidin-7(4H)-one], for which the IC50 (on PASK; in assay [1]; in assay [2]; on PASK (Invitrogen)) was not above 10 µM each time.

Regarding `O=c1cc(-c2ccc(Cl)cc2)[nH]c2c(-c3nccs3)cnn12` [Example 57, 5-(4-chlorophenyl)-3-(thiazol-2-yl)pyrazolo[1,5-a]pyrimidin-7(4H)-one], the half-inhibitory concentration (IC50) (at PASK; in assay [1]; in assay [2]; at PASK (Invitrogen)) was not above 10 µM each time.

Consider `Cc1csc(-c2cnn3c(=O)cc(-c4ccc(Cl)cc4)[nH]c23)n1` [Example 58, 5-(4-chlorophenyl)-3-(4-methylthiazol-2-yl)pyrazolo[1,5-a]pyrimidin-7(4H)-one], for which the IC50 (on PASK; in assay [1]; in assay [2]; on PASK (Invitrogen)) was not above 10 µM throughout.

With `CCn1ncc2cc(-c3cc(=O)n4ncc(-c5noc6ccccc56)c4[nH]3)ccc21` [Example 59, 3-(benzo[d]isoxazol-3-yl)-5-(1-ethyl-1H-indazol-5-yl)pyrazolo[1,5-a]pyrimidin-7(4H)-one], the IC50 (on PASK; in assay [1]; in assay [2]; at PASK (Invitrogen)) was not above 10 µM throughout.

Regarding `CCn1ncc2cc(-c3cc(=O)n4ncc(-c5ncc(-c6ccccc6)o5)c4[nH]3)ccc21` [Example 64, 5-(1-ethyl-1H-indazol-5-yl)-3-(5-phenyloxazol-2-yl)pyrazolo[1,5-a]pyrimidin-7(4H)-one], the IC50 (at PASK; in assay [1]; in assay [2]; on PASK (Invitrogen)) was not above 10 µM throughout.
